# Measured values: patent US7141604B2, “Citalopram for the treatment of elevated blood pressure” (Egis Gyógyszergyár Rt., priority 2002, dated 2006)
# Read-outs that look alike come from different tables or passages of the source.
# Experiments:
# [1] = system: hypertensive patients; experiment: Study III: patients with high blood pressure but without anxiety or depression; format: in vivo; conditions: for outcome in 55 non-responder patients, antihypertensive added to citalopram 20 mg/day: after six weeks, betaloc oral 100 mg/day (40 patients) or captopril 2×12.5 mg/day (15 patients) in addition to citalopram
# Procedure: In the test 102 hypertensive patients participated who complained of the following symptoms: attack like headache, dizziness, trembling, tremor, sweating, fear of death, sensation of heat and cold, and gastrointestinal complaints. The patients thought that their complaints were the consequence of panic attacks, but this was not supported by their psychiatric anamnesis in an unambiguous manner.
# The patients were orally treated with citalopram in a dose of 5 mg/day on the first week, 10 mg/day on the second week and 20 mg/day on the third week.
# From the 55 non-responder patients 40 individuals (39%) received betaloc in an oral dose of 100 mg/day and 15 patients (15%) received captopril in a dose of 2×12.5 mg/day, in addition to the administration of 20 mg/day of citalopram.
# [2] = system: hypertonic patients; experiment: Study I: antihypertensive effect of citalopram in hypertonic patients with panic disorder; format: in vivo; conditions: for outcome in remaining 84 patients, antihypertensive added to citalopram 20 mg/day: after 6 weeks, oral metoprolol 2×50 mg/day (64 patients) or captopril 2×12.5 mg/day (20 patients) in addition to citalopram
# Procedure: 254 patients participated in the study. All patients were hypertonic. In this group of hypertonics there were 120 patients suffering from panic disorder and agoraphobia, 70 patients suffering from panic disorder with agoraphobia and with depression, and 64 patients suffering from panic disorder with agoraphobia and with social phobia and/or with obsessive compulsive disorder (OCD).
# The patients received citalopram in a dose of 5 mg/day on the first week, 10 mg/day on the second week and 20 mg/day on the third and fourth week.
# The citalopram treatment of the remaining 84 patients was continued with a weekly oral dosage of 20 mg/day. From said 84 individuals 64 patients were additionally treated orally with metoprolol for 3 weeks in a dose of 2×50 mg/day and 20 patients received captopril in a dose of 2×12.5 mg/day.
# [3] = in the course of treatment of depression; cited from earlier work
# [4] = system: patients having unstable high blood pressure; conditions: human, in vivo, po
# Procedure: In the study 13 patients having unstable high blood pressure were used who suffered from different anxiety disorders and depression.
# Out of these patients 3 suffered from panic disorder, 1 from obsessive compulsive disorder and 9 from panic disorder with depression. On the beginning of treatment with the following antidepressants the patients were normotensive.
# The patients were treated orally with 40 mg/day of paroxetine, or 100 mg/day of sertraline, or 20 mg/day of fluoxetine, or 150 mg/day of fluvoxamine. After 6 months 60% of the patients and after a period of 12–30 months 40% of the patients became hypertensive beside the normalization of their psychiatric state.
# Thereafter the above mentioned antidepressants were substituted with citalopram. The oral dose of citalopram was 5 mg/day on the first week, 10 mg/day on the second week and 20 mg/day on the third week.
# [5] = after three weeks, oral citalopram 5/10/20 mg/day, of 102 hypertensive patients
# [6] = after 4 weeks treatment, citalopram 5/10/20/20 mg/day, of 254 hypertonic patients
structure (smiles),measurement,setting,value
COCCc1ccc(OCC(O)CNC(C)C)cc1 (centres unmarked) [betaloc],"outcome in 55 non-responder patients, antihypertensive added to citalopram 20 mg/day",[1],complete recovery
C[C@H](CS)C(=O)N1CCC[C@H]1C(=O)O [captopril],"outcome in 55 non-responder patients, antihypertensive added to citalopram 20 mg/day",[1],complete recovery
same,"outcome in remaining 84 patients, antihypertensive added to citalopram 20 mg/day",[2],complete recovery
"CN(C)CCCC1(c2ccc(F)cc2)OCc2cc(C#N)ccc21 (centres unmarked) [citalopram, 1-(3-dimethylamino-propyl)-1-(4-fluoro-phenyl)-1,3-dihydro-5-isobenzofurance-carbonitrile]",undesired side effect given in information leaflet,[3],hypotension may occur
same,patients recovered and became normotensive,[1]; [5],47 patients
same,share of patients recovered and became normotensive,[1]; [5],46%
same,"patients with complete recovery (became normotensive, symptoms of anxiety and affective disorders disappeared)",[2]; [6],170 patients
same,share of patients with complete recovery (became normotensive),[2]; [6],67%
CNCCC(Oc1ccc(C(F)(F)F)cc1)c1ccccc1 (centres unmarked) [fluoxetine],patients who became hypertensive,[4],40%
same,patients who became hypertensive,[4]; 6 months,60%
COCCCC/C(=N\OCCN)c1ccc(C(F)(F)F)cc1 [fluvoxamine],patients who became hypertensive,[4],40%
same,patients who became hypertensive,[4]; 6 months,60%
COCCc1ccc(OCC(O)CNC(C)C)cc1 (centres unmarked) [metoprolol],"outcome in remaining 84 patients, antihypertensive added to citalopram 20 mg/day",[2],complete recovery
Fc1ccc([C@@H]2CCNC[C@H]2COc2ccc3c(c2)OCO3)cc1 [paroxetine],patients who became hypertensive,[4],40%
same,patients who became hypertensive,[4]; 6 months,60%
CN[C@H]1CC[C@@H](c2ccc(Cl)c(Cl)c2)c2ccccc21 [sertraline],patients who became hypertensive,[4],40%
same,patients who became hypertensive,[4]; 6 months,60%
